US20260193293A1, “PEPTIDES CAPABLE OF INHIBITING PROTEIN-PROTEIN INTERACTIONS AT GABAB1A SUBUNIT AND USES THEREOF” (UNIVERSITY OF COPENHAGEN, priority 2022, published 2026)
“And” between values parts separate entries of the source, which are not always exact repeats. Identical values can stand only once. Like-named read-outs stand apart in the source and are kept apart here. Non-standard residues stand in square brackets, D forms with d. Residues, ends and D or L forms follow the SMILES beside them. *: point of attachment. Bn = c1ccc(C*)cc1; Sar = CNCC(=O)O

Biological target: Sushi domains (SD1/2) protein
Assay: Fluorescence polarization (FP) competition assay with AJAP-1probe, calculated Ki
Format: binding
Procedure, shortened: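 Ki values were derived from IC50s (sigmoidal fits, ≥ triplicate), with probe Kd obtained by saturation titration of SD1/2. Peptides displaced a 25 nM TAMRA-labelled probe; polarization read at 530/580 nm in 1% BSA-containing PBS, pH 7.4, room temperature.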

[1] = Table 1, affinity maturation, mean ± SEM, n ≥ 3, read-out: Ki
[2] = Table 13, peptides for affinity maturation, read-out: Ki (nM) mean ± SEM
[3] = CPP tagged peptides overview, SD1/2 binding affinity, mean ± SEM, n ≥ 3, read-out: Ki
[4] = Table 14, CPPs tagged peptides, read-out: Ki (nM) mean ± SEM

CC[C@H](C)[C@H](NC(=O)[C@H](Cc1ccc(OCc2ccccc2)cc1)NC(=O)[C@H](CC(=O)O)NC(=O)[C@H](CC(=O)O)NC(=O)[C@H](CC(=O)O)NC(=O)[C@H](CCC(=O)O)NC(C)=O)C(=O)N[C@@H](CC(=O)O)C(=O)N[C@@H](Cc1c[nH]c2ccccc12)C(=O)NCC(=O)N1CCC[C@H]1C(=O)N[C@H](C(=O)N[C@@H](CO)C(=O)N[C@@H](CC(=O)O)C(=O)N[C@@H](CC(=O)O)C(=O)N[C@@H](CC(=O)O)C(N)=O)[C@@H](C)O [Peptide 35] (Ac-EDDDY(Bn)IDWGPTSDDD-NH2)
Ki [1]: 9.5 ± 0.3 nM
Ki (Table 16, ncAAs incorporated peptides, read-out: Ki (nM) mean ± SEM): 9.5 ± 0.3 nM

CC(=O)N[C@@H](CCC(=O)O)C(=O)N[C@@H](CCC(=O)O)C(=O)N[C@@H](CC(=O)O)C(=O)N[C@@H](CC(=O)O)C(=O)N[C@@H](CO)C(=O)N[C@@H](CC(=O)O)C(=O)N[C@H](C(=O)N[C@@H](Cc1c[nH]c2ccccc12)C(=O)N[C@@H](Cc1c[nH]c2ccccc12)C(=O)NCC(=O)NCC(=O)N[C@@H](C)C(=O)N[C@@H](CC(=O)O)C(=O)N[C@H](C(=O)N[C@@H](CC(=O)O)C(=O)N[C@@H](Cc1ccc(O)cc1)C(=O)N[C@@H](C)C(=O)N[C@@H](CC(=O)O)C(N)=O)[C@@H](C)O)C(C)C [Peptide 36] (Ac-EEDDSDVWWGGADTDYAD-NH2)
Ki (Table 3, SPOT hit validation and previously reported peptides, read-out: Ki (nM) mean ± SEM): 244 ± 13 nM
Ki (Table 4, truncation and elongation scans of APP epitope, listed as EEDDSDVWWGGADTDYAD, read-out: Ki (nM) mean ± SEM): 244 nM and 233 nM

CC[C@H](C)[C@H](NC(=O)[C@H](Cc1ccccc1)NC(=O)[C@H](CCC(=O)O)NC(=O)[C@@H](NC(=O)[C@H](CCC(=O)O)NC(C)=O)[C@@H](C)O)C(=O)N[C@@H](C)C(=O)N[C@@H](Cc1c[nH]c2ccccc12)C(=O)N[C@@H](Cc1ccc(O)cc1)C(=O)NCC(=O)N[C@@H](C)C(=O)N[C@@H](CC(=O)O)C(=O)N[C@H](C(=O)N[C@@H](CC(=O)O)C(N)=O)[C@@H](C)O [Peptide 37] (Ac-ETEFIAWYGADTD-NH2)
Ki [1]: 95 ± 5 nM
Ki [2]: 95 ± 5 nM

CC[C@H](C)[C@H](NC(=O)[C@H](Cc1ccccc1)NC(=O)[C@H](CCC(=O)O)NC(=O)[C@@H](NC(=O)[C@H](CCC(=O)O)NC(C)=O)[C@@H](C)O)C(=O)N[C@@H](C)C(=O)N[C@@H](Cc1c[nH]c2ccccc12)C(=O)NCC(=O)N(C)CC(=O)N[C@H](C(=O)NCC(=O)N[C@@H](CC(=O)O)C(=O)N[C@@H](CCC(=O)O)C(=O)N[C@@H](CC(=O)O)C(N)=O)[C@@H](C)O [Peptide 38] (Ac-ETEFIAWG[Sar]TGDED-NH2)
Ki [1]: 32 ± 2 nM
Ki (Table 8, Ala-, D-amino acids and N-methylation scans of AJAP-1WT, read-out: Ki (nM) mean ± SEM): 32 ± 2 nM
Ki [2]: 32 ± 2 nM

CC[C@H](C)[C@H](NC(=O)[C@H](Cc1c[nH]c2ccccc12)NC(=O)[C@H](CC(=O)O)NC(=O)[C@H](CC(=O)O)NC(=O)[C@H](CC(=O)O)NC(=O)[C@H](CCC(=O)O)NC(=O)[C@H](CO)NC(=O)CNC(=O)CNC(=O)CNC(=O)CNC(=O)[C@H](CCCNC(=N)N)NC(=O)[C@H](CCCNC(=N)N)NC(=O)[C@H](CCCNC(=N)N)NC(=O)[C@H](CCCNC(=N)N)NC(=O)[C@H](CCCNC(=N)N)NC(=O)[C@H](CCCNC(=N)N)NC(=O)[C@H](CCCNC(=N)N)NC(=O)[C@H](CCCNC(=N)N)NC(C)=O)C(=O)N[C@@H](CC(=O)O)C(=O)N[C@@H](Cc1c[nH]c2ccccc12)C(=O)N[C@@H](Cc1ccc(O)cc1)C(=O)N[C@@H](CC(=O)O)C(=O)N[C@@H](CO)C(=O)N[C@@H](CC(=O)O)C(=O)N[C@@H](CC(=O)O)C(=O)N[C@@H](CC(=O)O)C(N)=O [Peptide R8-FL-16] (Ac-RRRRRRRRGGGGSEDDDWIDWYDSDDD-NH2)
Ki [3]: 280 ± 2 nM
Ki [4]: 280 ± 2 nM

CC[C@H](C)[C@H](NC(=O)[C@H](Cc1c[nH]c2ccccc12)NC(=O)[C@H](CC(=O)O)NC(=O)[C@H](CC(=O)O)NC(=O)[C@H](CC(=O)O)NC(=O)[C@H](CCC(=O)O)NC(=O)[C@H](CO)NC(=O)CNC(=O)CNC(=O)CNC(=O)CNC(=O)[C@H](CCCNC(=N)N)NC(=O)[C@H](CCCNC(=N)N)NC(=O)[C@H](CCCNC(=N)N)NC(=O)[C@H](CCCNC(=N)N)NC(=O)[C@H](CCCNC(=N)N)NC(=O)[C@H](CCCNC(=N)N)NC(=O)[C@H](CCCNC(=N)N)NC(=O)[C@H](CCCNC(=N)N)NC(C)=O)C(=O)N[C@@H](CC(=O)O)C(=O)N[C@@H](Cc1c[nH]c2ccccc12)C(=O)NCC(=O)N1CCC[C@H]1C(=O)N[C@H](C(=O)N[C@@H](CO)C(=O)N[C@@H](CC(=O)O)C(=O)N[C@@H](CC(=O)O)C(=O)N[C@@H](CC(=O)O)C(N)=O)[C@@H](C)O [Peptide R8-FL-17] (Ac-RRRRRRRRGGGGSEDDDWIDWGPTSDDD-NH2)
Ki [3]: 140 ± 4 nM
Ki [4]: 140 ± 4 nM

CC[C@H](C)[C@H](NC(=O)[C@H](Cc1c[nH]c2ccccc12)NC(=O)[C@H](CC(=O)O)NC(=O)[C@H](CC(=O)O)NC(=O)[C@H](CC(=O)O)NC(=O)[C@H](CCC(=O)O)NC(=O)[C@H](CCCCN)NC(=O)[C@H](C)NC(=O)[C@H](C)NC(=O)[C@H](C)NC(=O)[C@H](CCC(=O)O)NC(=O)[C@H](CCCNC(=N)N)NC(=O)[C@H](CCCNC(=N)N)NC(=O)[C@H](CCCNC(=N)N)NC(=O)[C@H](CCCNC(=N)N)NC(=O)[C@H](CCCNC(=N)N)NC(=O)[C@H](CCCNC(=N)N)NC(=O)[C@H](CCCNC(=N)N)NC(=O)[C@H](CCCNC(=N)N)NC(C)=O)C(=O)N[C@@H](CC(=O)O)C(=O)N[C@@H](Cc1c[nH]c2ccccc12)C(=O)N[C@@H](Cc1ccc(O)cc1)C(=O)N[C@@H](CC(=O)O)C(=O)N[C@@H](CO)C(=O)N[C@@H](CC(=O)O)C(=O)N[C@@H](CC(=O)O)C(=O)N[C@@H](CC(=O)O)C(N)=O [Peptide R8-RL-16] (Ac-RRRRRRRREAAAKEDDDWIDWYDSDDD-NH2)
Ki [3]: 314 ± 4 nM
Ki [4]: 314 ± 4 nM

CC[C@H](C)[C@H](NC(=O)[C@H](Cc1c[nH]c2ccccc12)NC(=O)[C@H](CC(=O)O)NC(=O)[C@H](CC(=O)O)NC(=O)[C@H](CC(=O)O)NC(=O)[C@H](CCC(=O)O)NC(=O)[C@H](CCCCN)NC(=O)[C@H](C)NC(=O)[C@H](C)NC(=O)[C@H](C)NC(=O)[C@H](CCC(=O)O)NC(=O)[C@H](CCCNC(=N)N)NC(=O)[C@H](CCCNC(=N)N)NC(=O)[C@H](CCCNC(=N)N)NC(=O)[C@H](CCCNC(=N)N)NC(=O)[C@H](CCCNC(=N)N)NC(=O)[C@H](CCCNC(=N)N)NC(=O)[C@H](CCCNC(=N)N)NC(=O)[C@H](CCCNC(=N)N)NC(C)=O)C(=O)N[C@@H](CC(=O)O)C(=O)N[C@@H](Cc1c[nH]c2ccccc12)C(=O)NCC(=O)N1CCC[C@H]1C(=O)N[C@H](C(=O)N[C@@H](CO)C(=O)N[C@@H](CC(=O)O)C(=O)N[C@@H](CC(=O)O)C(=O)N[C@@H](CC(=O)O)C(N)=O)[C@@H](C)O [Peptide R8-RL-17] (Ac-RRRRRRRREAAAKEDDDWIDWGPTSDDD-NH2)
Ki [3]: 105 ± 2 nM
Ki [4]: 105 ± 2 nM

CC(=O)N[C@@H](CCC(=O)O)C(=O)N[C@@H](CC(=O)O)C(=O)N[C@@H](CC(=O)O)C(=O)N[C@@H](CO)C(=O)N[C@@H](CC(=O)O)C(=O)N[C@H](C(=O)N[C@@H](Cc1c[nH]c2ccccc12)C(=O)N[C@@H](Cc1c[nH]c2ccccc12)C(=O)NCC(=O)N1CCC[C@H]1C(=O)N[C@H](C(=O)NCC(=O)N[C@@H](CC(=O)O)C(=O)N[C@@H](CCC(=O)O)C(=O)N[C@@H](CC(=O)O)C(N)=O)[C@@H](C)O)C(C)C [Peptide X, Ac-EDDSDVWWGPTGDED-NH2] (Ac-EDDSDVWWGPTGDED-NH2)
Ki [1]: 62 ± 1 nM
Ki [2]: 62 ± 1 nM
fold improved affinity compared to APPWT (relative to APPWT): ~10 fold

CC[C@H](C)[C@H](NC(=O)[C@H](Cc1ccccc1)NC(=O)[C@H](CCC(=O)O)NC(=O)[C@@H](NC(=O)[C@H](CCC(=O)O)NC(C)=O)[C@@H](C)O)C(=O)N[C@@H](C)C(=O)N[C@@H](Cc1c[nH]c2ccccc12)C(=O)NCC(=O)NCC(=O)N[C@@H](C)C(=O)N[C@@H](CC(=O)O)C(=O)N[C@H](C(=O)N[C@@H](CC(=O)O)C(N)=O)[C@@H](C)O [Peptide Y] (Ac-ETEFIAWGGADTD-NH2)
Ki [1]: 354 ± 9 nM
Ki [2]: 345 ± 9 nM

CC[C@H](C)[C@H](NC(=O)[C@H](Cc1ccccc1)NC(=O)[C@H](CCC(=O)O)NC(=O)[C@@H](NC(=O)[C@H](CCCNC(=N)N)NC(C)=O)[C@@H](C)O)C(=O)N[C@@H](C)C(=O)N[C@@H](Cc1c[nH]c2ccccc12)C(=O)NCC(=O)N1CCC[C@H]1C(=O)N[C@H](C(=O)NCC(=O)N[C@@H](CC(=O)O)C(=O)N[C@@H](CCC(=O)O)C(=O)N[C@@H](CC(=O)O)C(N)=O)[C@@H](C)O [RTEFIAWGPTGDED] (Ac-RTEFIAWGPTGDED-NH2)
Ki (Table 11, deep mutational scanning validation variants of AJAP-1WT, read-out: Ki (nM) mean ± SEM): 87 ± 3 nM

CC[C@H](C)[C@H](NC(=O)[C@H](Cc1ccccc1)NC(=O)[C@H](CCC(=O)O)NC(=O)[C@@H](NC(C)=O)[C@@H](C)O)C(=O)N[C@@H](C)C(=O)N[C@@H](Cc1c[nH]c2ccccc12)C(=O)NCC(=O)N1CCC[C@H]1C(=O)N[C@H](C(=O)NCC(=O)N[C@@H](CC(=O)O)C(=O)N[C@@H](CCC(=O)O)C(=O)N[C@@H](CC(=O)O)C(N)=O)[C@@H](C)O [TEFIAWGPTGDED] (Ac-TEFIAWGPTGDED-NH2)
Ki (Table 5, elongation and truncation scan of AJAP-1 binding epitope, read-out: Ki (nM) mean ± SEM): 102 ± 4 nM

CC[C@H](C)[C@H](NC(=O)[C@H](Cc1c[nH]c2ccccc12)NC(=O)[C@H](CC(=O)O)NC(=O)[C@H](CC(=O)O)NC(=O)[C@H](CC(=O)O)NC(=O)[C@H](CCC(=O)O)NC(=O)[C@H](CCCNC(=N)N)NC(=O)[C@H](CCCNC(=N)N)NC(=O)[C@H](CCCNC(=N)N)NC(=O)[C@H](CCC(N)=O)NC(=O)[C@H](CCCNC(=N)N)NC(=O)[C@H](CCCNC(=N)N)NC(=O)[C@H](CCCCN)NC(=O)[C@H](CCCCN)NC(=O)[C@H](CCCNC(=N)N)NC(=O)CNC(=O)[C@H](Cc1ccc(O)cc1)NC(C)=O)C(=O)N[C@@H](CC(=O)O)C(=O)N[C@@H](Cc1c[nH]c2ccccc12)C(=O)N[C@@H](Cc1ccc(O)cc1)C(=O)N[C@@H](CC(=O)O)C(=O)N[C@@H](CO)C(=O)N[C@@H](CC(=O)O)C(=O)N[C@@H](CC(=O)O)C(=O)N[C@@H](CC(=O)O)C(N)=O [Tat-16] (Ac-YGRKKRRQRRREDDDWIDWYDSDDD-NH2)
Ki [3]: 83 ± 1 nM
Ki [4]: 83.4 ± 1 nM
